Laboratory results: PMC8942544, “Design and synthesis of benzodiazepines as brain penetrating PARP-1 inhibitors” (Journal of Enzyme Inhibition and Medicinal Chemistry, 2022)
Entries after “also recorded” stand apart in the source; their conditions may differ. Like-named read-outs stand apart in the source and are kept apart here.

Experiments:
PARP-1 = target: T1, PARP-1 (Homo sapiens, UniProt P09874); assay: PARP-1 enzyme inhibition assay (BPS Bioscience PARP Colorimetric Assay Kit); assay type: biochemical; details: for inhibition at 0.05 µM: compound concentration 50 nM, three independent tests
T1 construct: purchased BPS Bioscience 80580
T1 sequence (P09874 whole entry): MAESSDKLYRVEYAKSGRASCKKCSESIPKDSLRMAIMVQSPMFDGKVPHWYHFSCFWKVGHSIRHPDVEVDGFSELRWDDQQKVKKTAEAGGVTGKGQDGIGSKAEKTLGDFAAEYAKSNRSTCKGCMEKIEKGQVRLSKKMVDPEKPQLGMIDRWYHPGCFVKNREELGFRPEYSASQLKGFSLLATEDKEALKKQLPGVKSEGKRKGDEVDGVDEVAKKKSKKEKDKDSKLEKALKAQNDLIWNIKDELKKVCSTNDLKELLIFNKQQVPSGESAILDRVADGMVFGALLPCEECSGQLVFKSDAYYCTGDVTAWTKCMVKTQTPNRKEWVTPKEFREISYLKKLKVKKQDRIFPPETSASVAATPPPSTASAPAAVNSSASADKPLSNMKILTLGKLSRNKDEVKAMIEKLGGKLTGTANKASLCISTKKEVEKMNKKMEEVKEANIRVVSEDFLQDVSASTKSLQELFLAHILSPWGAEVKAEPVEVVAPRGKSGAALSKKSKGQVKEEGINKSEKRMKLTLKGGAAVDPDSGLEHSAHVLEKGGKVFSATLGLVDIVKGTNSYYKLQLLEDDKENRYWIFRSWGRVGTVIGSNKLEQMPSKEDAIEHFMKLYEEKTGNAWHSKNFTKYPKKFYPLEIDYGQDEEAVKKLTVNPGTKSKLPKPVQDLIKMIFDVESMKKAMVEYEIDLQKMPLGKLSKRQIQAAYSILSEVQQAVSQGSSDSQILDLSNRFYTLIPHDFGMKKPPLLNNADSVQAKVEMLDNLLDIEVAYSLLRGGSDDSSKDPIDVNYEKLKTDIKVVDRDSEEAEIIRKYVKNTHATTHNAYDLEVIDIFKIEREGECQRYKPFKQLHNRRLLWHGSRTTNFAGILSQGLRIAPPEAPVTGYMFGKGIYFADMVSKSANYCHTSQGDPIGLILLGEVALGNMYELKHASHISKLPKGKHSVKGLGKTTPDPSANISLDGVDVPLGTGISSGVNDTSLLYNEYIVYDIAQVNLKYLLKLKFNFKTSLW
Method: All target compounds were evaluated for PARP-1 enzyme inhibition activity at the concentration of 50 nM determined by previous pre-experiments.
The ability of the compounds to inhibit PARP-1 enzyme activity was assessed using BPS Bioscience's PARP Colorimetric Assay Kit (BPS Bioscience, Catalog # 80580). PARP-1 is known to catalyse the NAD-dependent addition of poly(ADP-ribose) to histones. The PARP-1 assay kit comes in a convenient 96-well format, with purified PARP-1 enzyme, histone mixture, activated DNA, and PARP-1 assay buffer. The key to the PARP-1 Colorimetric Activity Assay is the biotinylated substrate. With this kit, only three simple steps are required for PARP-1 reactions. First, histone proteins are coated on a 96-well plate. Next, the PARP-1 biotinylated substrate is incubated with an assay buffer that contains the PARP-1 enzyme. Finally, the plate is treated with streptavidin-HRP followed by the addition of the colorimetric HRP substrate to produce colour that can then be measured using a UV/Vis spectrophotometer microplate reader. IC50 values were calculated using GraphPad Prism5 software.

PARP-2 = PARP-2 (Homo sapiens, UniProt Q9UGN5); assay: PARP-2 enzyme inhibition (IC50); assay type: biochemical
Chain of PARP-2 (Q9UGN5 whole entry): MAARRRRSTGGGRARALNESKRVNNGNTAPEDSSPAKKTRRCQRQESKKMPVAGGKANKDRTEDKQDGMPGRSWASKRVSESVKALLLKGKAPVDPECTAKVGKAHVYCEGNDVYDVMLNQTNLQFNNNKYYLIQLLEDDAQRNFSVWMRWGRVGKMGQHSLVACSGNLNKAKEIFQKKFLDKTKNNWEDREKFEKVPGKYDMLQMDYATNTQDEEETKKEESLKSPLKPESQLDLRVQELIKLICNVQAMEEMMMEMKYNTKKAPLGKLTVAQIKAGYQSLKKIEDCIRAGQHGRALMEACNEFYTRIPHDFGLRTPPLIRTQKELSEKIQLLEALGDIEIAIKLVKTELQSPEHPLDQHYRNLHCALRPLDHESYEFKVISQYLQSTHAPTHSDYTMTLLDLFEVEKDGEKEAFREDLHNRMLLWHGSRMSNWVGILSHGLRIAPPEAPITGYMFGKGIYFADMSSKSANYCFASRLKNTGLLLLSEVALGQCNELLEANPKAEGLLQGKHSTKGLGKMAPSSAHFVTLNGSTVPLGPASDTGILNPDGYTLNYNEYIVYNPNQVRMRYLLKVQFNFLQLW
Text: PARP-2 is the closest homolog of PARP-1, which also resides in the nucleus and functions similarly to PARP-1.

[1] = system: MX-1 (BRCA1 mutant tumour cells); assay: MTT antiproliferation assay, MX-1 cells; assay type: cell-based; details: Homo sapiens, MX1, breast cancer cell line, 48 h
Method: (§1) Due to their acceptable inhibition rates (more than 50%) at the concentration of 50 nM, compounds H34, H42, H48, H50, and H52 were selected to evaluate the proliferation inhibition activity on several cancer cells, including BRCA1 mutant tumour cells (MX-1) and BRCA1 wild type tumour cells (MCF7 and A549).
(§2) The MTT assay was performed to detect the sensitivity of cells to anticancer drugs in vitro. The human A549, MCF7, and U87 tumour cells, as well as human BRCA mutant tumour cells (MX-1), were tested in this study. The cell culture was carried out in accordance with routine operations or instructions. Briefly, 5,000 cells were seeded in each well of a 96-well plate. After cell attachment to the bottom of the well, different concentrations of tested compounds were added into designated wells. After 48 h of incubation, 20 µL of MTT solution (5 mg/mL) were added to each well for cell staining. After 4 h, the media were removed and 150 µL of DMSO were added to each well. Finally, the absorbance was determined at 570 nm using a multifunctional microplate reader (TECAN).

MCF7 cells = assay: MTT antiproliferation assay, MCF7 cells; assay type: cell-based; details: Homo sapiens, breast cancer cell line, 48 h
Method: as §1, §2

A549 cells = assay: MTT antiproliferation assay, A549 cells; assay type: cell-based; details: Homo sapiens, lung cancer cell line, 48 h
Method: as §1, §2

glioblastoma (U87) cells = assay: Antiproliferation in combination with TMZ, U87 cells; assay type: cell-based, human; details: combination with Temozolomide
Method: as §2

[2] = Brain/plasma pharmacokinetic study in vivo; details: ICR mice; for concentration at 5 min / Kp at 5 min: 5 min after tail vein injection of 1.5 mg/kg
Method: Further, the brain permeability of representative compounds was evaluated in ICR mice. After tail vein injection of a 1.5 mg/kg dose, the concentrations of the compounds in the brain and plasma were measured after 5 min and 60 min of administration, and the brain/plasma (B/P) ratio was calculated. […] On the contrary, compounds H42 and H52 performed high B/P ratios, which were consistent with our initial expectations. Among them, the B/P ratio of H42 reached balance rapidly in vivo and maintained above 3, while the proportion of H52 in the brain increased gradually and reached 4.41 at 60 min.
All animal experiments were complied with the ARRIVE guidelines and were carried out in accordance with the U.K. Animals Act, 1986 and associated guidelines. The ICR mice were used in plasma–brain distribution assay of compounds. After tail vein injection of a 1.5 mg/kg dose, the concentrations of the compounds in the brain and plasma were measured after 5 min and 60 min of administration, and the brain/plasma (B/P) ratio was calculated. The samples of plasma and brain tissue were prepared as previously reported. An established LC-MS/MS method was used for determining the concentration of representative compounds in plasma and brain tissue.

[3] = system: MDCK cells monolayer model; details: dog, 3 h, 10 µM
in vitro = details: dog, MDCK
[4] = cited from earlier work
[5] = mouse, brain, intravenous, read-out: Brain
[6] = mouse, brain, intravenous, 60 min after tail vein injection of 1.5 mg/kg, read-out: Brain
[7] = mouse, brain/plasma, intravenous, read-out: B/P ratio
[8] = mouse, brain/plasma, intravenous, 60 min after tail vein injection of 1.5 mg/kg, read-out: B/P ratio
[9] = mouse, plasma, intravenous, read-out: Plasma
[10] = mouse, plasma, intravenous, 60 min after tail vein injection of 1.5 mg/kg, read-out: Plasma

| SMILES | IC50 (PARP-1) [µM] | inhibition at 0.05 µM (PARP-1) [%] | IC50 (PARP-2) [µM] | IC50 [1] [µM] | IC50 (MCF7 cells) [µM] | IC50 (A549 cells) [µM] | concentration at 5 min [2, 5] [ng/g] | concentration at 60 min [2, 6] [ng/g] | Kp at 5 min [2, 7] | Kp at 60 min [2, 8] | concentration at 5 min [2, 9] [ng/mL] | concentration at 60 min [2, 10] [ng/mL] | Capical [3] [µg/mL] | also measured |
| --- | --- | --- | --- | --- | --- | --- | --- | --- | --- | --- | --- | --- | --- | --- |
| COc1ccc(-c2ccc(C3=Nc4ccccc4C(=O)NC3)cc2)cc1 [Compound H42, 2-(4′-Methoxy-[1,1′-biphenyl]-4-yl)-3,4-dihydro-5H-benzo[e][1,4]diazepin-5-one] | 0.0403 | > 50 | 0.0471 | 31.4 ± 2.8 | 39.4 ± 4.2 | 162 ± 18.4 | 1820 ± 324 | 51.8 ± 13.6 | 3.28 ± 0.28 | 3.58 ± 0.53 | 555 ± 104 | 15.1 ± 5.44 | 1.62 ± 0.37 | Sensitisation effect in combination with TMZ (glioblastoma (U87) cells): significant sensitisation effects; Kp ([2]; mouse, brain/plasma, intravenous, maintained over 5 and 60 min, 1.5 mg/kg tail vein, read-out: B/P ratio): > 3; Cbasolateral [3]: 0.33 ± 0.05 µg/mL; Papp A→B at 3 h, 10 µM (in vitro): 16.1 ± 1.08 ×10⁻⁶ cm/s |
| Nc1ccc(-c2ccc(C3CNC(=O)c4ccccc4N3)cc2)cc1 (stereo not shown) [Compound H48, 2-(4′-Amino-[1,1′-biphenyl]-4-yl)-1,2,3,4-tetrahydro-5H-benzo[e][1,4]diazepin-5-one] | 0.0378 | > 50 | 0.0407 | 30.7 ± 4 | 35.7 ± 2.9 | 176 ± 23.1 | 1050 ± 153 | 10.1 ± 0.87 | 0.4 ± 0.05 | 0.07 ± 0.02 | 2650 ± 264 | 157 ± 32.3 | 2.43 ± 0.42 | Cbasolateral [3]: 0.23 ± 0.06 µg/mL; Papp A→B at 3 h, 10 µM (in vitro): 11.7 ± 0.51 ×10⁻⁶ cm/s |
| CNCc1ccc(-c2[nH]c3cc(F)cc4c3c2CCNC4=O)cc1 [Rucaparib, reference compound] | – | 98.2 ± 2.7 | – | 5.5 ± 2.2 | 20.2 ± 3.1 | 34.9 ± 5.2 | 170 ± 48.5 | 13.9 ± 3.78 | 0.14 ± 0.04 | 0.1 ± 0.06 | 1180 ± 122 | 161 ± 60.5 | 3.39 ± 0.82 | CNS penetration [4]: could not pass through the blood-brain barrier; also recorded: not CNS penetrant |
| COc1ccc(-c2ccc(C3CNC(=O)c4ccccc4N3)cc2)cc1 (stereo not shown) [Compound H50, 2-(4′-Methoxy-[1,1′-biphenyl]-4-yl)-1,2,3,4-tetrahydro-5H-benzo[e][1,4]diazepin-5-one] | 0.0463 | > 50 | 0.0451 | 130 ± 10.7 | 125 ± 13.2 | > 200 | – | – | – | – | – | – | – | – |
| Cn1ncnc1[C@H]1c2n[nH]c(=O)c3cc(F)cc(c23)N[C@@H]1c1ccc(F)cc1 [Talazoparib] | – | – | – | – | – | – | – | – | – | – | – | – | – | CNS penetration [4]: not CNS penetrant |
| Cc1n[nH]c(C)c1-c1ccc(C2=Nc3ccccc3C(=O)NC2)cc1 [Compound H34, 2-(4-(3,5-Dimethyl-1H-pyrazol-4-yl)phenyl)-3,4-dihydro-5H-benzo[e][1,4]diazepin-5-one] | 0.0414 | > 50 | 0.0512 | 40.3 ± 3.3 | 44.3 ± 5.2 | 121 ± 16.2 | 301 ± 52.5 | 9.67 ± 8.75 | 0.1 ± 0.01 | 0.01 ± 0.01 | 3120 ± 220 | 1050 ± 70.3 | 1.65 ± 0.32 | Cbasolateral [3]: 0.31 ± 0.08 µg/mL; Papp A→B at 3 h, 10 µM (in vitro): 15.7 ± 1.32 ×10⁻⁶ cm/s |
| CC(C)N1CCN(c2ccc(C3CNC(=O)c4ccccc4N3)cc2)CC1 (stereo not shown) [Compound H53, 2-(4-(4-Isopropylpiperazin-1-yl)phenyl)-1,2,3,4-tetrahydro-5H-benzo[e][1,4]diazepin-5-one] | – | 29.9 ± 3.4 | – | – | – | – | – | – | – | – | – | – | – | – |
| O=C1NCC(c2ccc(-c3ccc(C(F)(F)F)cc3)cc2)Nc2ccccc21 (stereo not shown) [Compound H52, 2-(4′-(Trifluoromethyl)-[1,1′-biphenyl]-4-yl)-1,2,3,4-tetrahydro-5H-benzo[e][1,4]diazepin-5-one] | 0.0302 | > 50 | 0.0396 | 24.6 ± 3.7 | 37.9 ± 3.5 | 157 ± 15.2 | 1570 ± 264 | 2630 ± 118 | 2.18 ± 0.27 | 4.41 | 719 ± 39.9 | 597 ± 25 | 1.65 ± 0.05 | Sensitisation effect in combination with TMZ (glioblastoma (U87) cells): significant sensitisation effects; B/P ratio ([2]; 60 min after tail vein injection of 1.5 mg/kg, 1.5 mg/kg): 4.41 ± 0.07 fold; Cbasolateral [3]: 0.45 ± 0.07 µg/mL; Papp A→B at 3 h, 10 µM (in vitro): 19.7 ± 0.92 ×10⁻⁶ cm/s |
| O=C1NCC(c2cccc(F)c2)Nc2ccccc21 (stereo not shown) [Compound H23, 2-(3-Fluorophenyl)-1,2,3,4-tetrahydro-5H-benzo[e][1,4]diazepin-5-one] | – | 32.1 ± 1.6 | – | – | – | – | – | – | – | – | – | – | – | – |
| O=C(c1cc(Cc2n[nH]c(=O)c3ccccc23)ccc1F)N1CCN(C(=O)C2CC2)CC1 [Olaparib] | – | – | – | – | – | – | – | – | – | – | – | – | – | CNS penetration [4]: not CNS penetrant |
| CN1CC(c2ccc(Br)cc2)Nc2ccccc2C1=O (stereo not shown) [Compound H28, 2-(4-Bromophenyl)-4-methyl-1,2,3,4-tetrahydro-5H-benzo[e][1,4]diazepin-5-one] | – | 24 ± 5.7 | – | – | – | – | – | – | – | – | – | – | – | – |
| COc1ccc(C2=Nc3ccccc3C(=O)NC2)cc1OC [Compound H16, 2-(3,4-Dimethoxyphenyl)-3,4-dihydro-5H-benzo[e][1,4]diazepin-5-one] | – | 24.4 ± 3.2 | – | – | – | – | – | – | – | – | – | – | – | – |
| O=C1NCC(c2ccc(F)cc2)=Nc2ccccc21 [Compound H8, 2-(4-Fluorophenyl)-3,4-dihydro-5H-benzo[e][1,4]diazepin-5-one] | – | 32.1 ± 3.6 | – | – | – | – | – | – | – | – | – | – | – | – |
| COc1ccc(C2CNC(=O)c3ccccc3N2)cc1OC (stereo not shown) [Compound H26, 2-(3,4-Dimethoxyphenyl)-1,2,3,4-tetrahydro-5H-benzo[e][1,4]diazepin-5-one] | – | 37.4 ± 3.9 | – | – | – | – | – | – | – | – | – | – | – | – |
| O=C1NCCNc2ccccc21 [Compound H1] | – | 6.2 ± 5.2 | – | – | – | – | – | – | – | – | – | – | – | – |
